Test results published in publication PMC9090415, “Discovery of small molecule inhibitors of Plasmodium falciparum apicoplast DNA polymerase” (Journal of Enzyme Inhibition and Medicinal Chemistry, 2022).

Biological target: P. falciparum apicoplast DNA polymerase (Pf-apPOL) (Plasmodium falciparum, UniProt Q8ILY1)
Test: Fluorescence-based high-throughput DNA polymerase assay (molecular beacon), primary screen and dose-response
Assay type: biochemical
Conditions: for DNA Pol: unit not given, 90 min, 10 µM
Outline: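 Single-point screening used 10 µM compound with 20 nM polymerase, 20 nM hairpin substrate and 6 µM dNTPs for 90 min at 25 °C. Confirmatory titrations (2.5–80 µM) followed fluorescence at three times, and IC50 was derived from a fit including a cooperativity term n.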

P. falciparum apicoplast DNA polymerase (Pf-apPOL), sequence (Q8ILY1 entry or part of it): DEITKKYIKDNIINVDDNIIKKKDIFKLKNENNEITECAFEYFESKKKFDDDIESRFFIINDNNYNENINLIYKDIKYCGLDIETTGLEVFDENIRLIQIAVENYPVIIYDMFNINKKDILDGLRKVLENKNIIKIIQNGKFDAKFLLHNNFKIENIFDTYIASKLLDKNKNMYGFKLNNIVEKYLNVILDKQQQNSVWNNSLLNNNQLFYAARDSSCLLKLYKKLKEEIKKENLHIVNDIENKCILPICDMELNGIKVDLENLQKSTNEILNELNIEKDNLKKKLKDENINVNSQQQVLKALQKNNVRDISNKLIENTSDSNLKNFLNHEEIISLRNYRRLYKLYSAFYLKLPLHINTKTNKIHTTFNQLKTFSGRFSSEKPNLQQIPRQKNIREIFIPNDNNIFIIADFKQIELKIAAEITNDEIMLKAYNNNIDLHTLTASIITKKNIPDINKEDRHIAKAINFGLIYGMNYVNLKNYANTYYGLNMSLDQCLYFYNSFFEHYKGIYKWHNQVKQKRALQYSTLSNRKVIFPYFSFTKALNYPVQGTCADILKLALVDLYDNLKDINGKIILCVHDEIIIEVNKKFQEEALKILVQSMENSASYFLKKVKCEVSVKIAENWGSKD

CCCCOC(=O)CCCCCN1C(=O)C(=Cc2ccc(OC)cc2)SC1=S [Molecule 75, CCCCOC(=O)CCCCCN1C(=S)SC(=Cc2ccc(cc2)OC)C1=O]
% inhibition Apo pol 10' (DRC-1, concentration 2.5): -1.1804%
% inhibition Apo pol 10' (DRC-1, concentration 5): 1.705%
% inhibition Apo pol 10' (DRC-1, concentration 10): 11.988%
% inhibition Apo pol 10' (DRC-1, concentration 20): 12.7699%
% inhibition Apo pol 10' (DRC-1, concentration 40): 17.437%
% inhibition Apo pol 10' (DRC-1, concentration 80): 85.0535%
% inhibition Apol 90' (DRC-1, 90', concentration 2.5): 3.6918%
% inhibition Apol 90' (DRC-1, 90', concentration 5): 7.9015%
% inhibition Apol 90' (DRC-1, 90', concentration 10): 19.2889%
% inhibition Apol 90' (DRC-1, 90', concentration 20): 19.2951%
% inhibition Apol 90' (DRC-1, 90', concentration 40): 23.7139%
% inhibition Apol 90' (DRC-1, 90', concentration 80): 84.541%
% inhibition apPOL 180' (DRC-1, 180', concentration 2.5): 6.465%
% inhibition apPOL 180' (DRC-1, 180', concentration 5): 11.5498%
% inhibition apPOL 180' (DRC-1, 180', concentration 10): 23.7615%
% inhibition apPOL 180' (DRC-1, 180', concentration 20): 23.8231%
% inhibition apPOL 180' (DRC-1, 180', concentration 40): 28.3946%
% inhibition apPOL 180' (DRC-1, 180', concentration 80): 81.7032%
% inhibition Apo pol 5' (DRC-2, 5', concentration 2.5): -2%
% inhibition Apo pol 5' (DRC-2, 5', concentration 5): 3%
% inhibition Apo pol 5' (DRC-2, 5', concentration 10): 20%
% inhibition Apo pol 5' (DRC-2, 5', concentration 20): 30%
% inhibition Apo pol 5' (DRC-2, 5', concentration 40): 45%
% inhibition Apo pol 5' (DRC-2, 5', concentration 80): 46%
% inhibition Apol 40' (DRC-2, 40', concentration 2.5): -0.735%
% inhibition Apol 40' (DRC-2, 40', concentration 5): 5%
% inhibition Apol 40' (DRC-2, 40', concentration 10): 24%
% inhibition Apol 40' (DRC-2, 40', concentration 20): 42%
% inhibition Apol 40' (DRC-2, 40', concentration 40): 66%
% inhibition Apol 40' (DRC-2, 40', concentration 80): 69%
% inhibition ApPOL 90' (DRC-2, 90', concentration 2.5): -1%
% inhibition ApPOL 90' (DRC-2, 90', concentration 5): 6.48%
% inhibition ApPOL 90' (DRC-2, 90', concentration 10): 25%
% inhibition ApPOL 90' (DRC-2, 90', concentration 20): 43%
% inhibition ApPOL 90' (DRC-2, 90', concentration 40): 71%
% inhibition ApPOL 90' (DRC-2, 90', concentration 80): 74%
% inhibition apPOL 180' (DRC-2, 180', concentration 2.5): -5%
% inhibition apPOL 180' (DRC-2, 180', concentration 5): 0.541%
% inhibition apPOL 180' (DRC-2, 180', concentration 10): 18%
% inhibition apPOL 180' (DRC-2, 180', concentration 20): 40%
% inhibition apPOL 180' (DRC-2, 180', concentration 40): 76%
% inhibition apPOL 180' (DRC-2, 180', concentration 80): 79%
DNA Pol (primary screen value of the 186 hits): 27
DNA Pol (primary screen value, head "DNA Pol"): 27

O=C(Nc1cccc(C(=O)Nc2ccc(S(=O)(=O)O)c3cc(S(=O)(=O)O)cc(S(=O)(=O)O)c23)c1)Nc1cccc(C(=O)Nc2ccc(S(=O)(=O)O)c3cc(S(=O)(=O)O)cc(S(=O)(=O)O)c23)c1 [Molecule 39]
IC50 (supplemental file 2, sheet IC50 nontoxic compounds, Pf-apPOL): 6.77 µM

CCCCc1ccc(NC(=O)CSc2nc(C3CCCCC3)c(C#N)c(=O)[nH]2)c(C)c1 [Molecule 8, CCCCc1ccc(c(c1)C)NC(=O)CSc1nc(C2CCCCC2)c(c(=O)[nH]1)C#N]
DNA Pol ('DNA Pol' of the 186 hits list (primary screen result)): 95
% inhibition Apo pol 10' (DRC-1, concentration 2.5): -1.955%
% inhibition Apo pol 10' (DRC-1, concentration 5): 13.3371%
% inhibition Apo pol 10' (DRC-1, concentration 10): 62.6303%
% inhibition Apo pol 10' (DRC-1, concentration 20): 77.3201%
% inhibition Apo pol 10' (DRC-1, concentration 40): 94.4176%
% inhibition Apo pol 10' (DRC-1, concentration 80): 94.8178%
% inhibition Apol 90' (DRC-1, 90', concentration 2.5): 1.126%
% inhibition Apol 90' (DRC-1, 90', concentration 5): 14.1038%
% inhibition Apol 90' (DRC-1, 90', concentration 10): 58.4598%
% inhibition Apol 90' (DRC-1, 90', concentration 20): 77.2827%
% inhibition Apol 90' (DRC-1, 90', concentration 40): 94.9708%
% inhibition Apol 90' (DRC-1, 90', concentration 80): 95.9505%
% inhibition apPOL 180' (DRC-1, 180', concentration 2.5): 1.158%
% inhibition apPOL 180' (DRC-1, 180', concentration 5): 7.482%
% inhibition apPOL 180' (DRC-1, 180', concentration 10): 46.1044%
% inhibition apPOL 180' (DRC-1, 180', concentration 20): 69.2922%
% inhibition apPOL 180' (DRC-1, 180', concentration 40): 95.0497%
% inhibition apPOL 180' (DRC-1, 180', concentration 80): 96.1544%
% inhibition Apo pol 5' (DRC-2, 5', concentration 20 (unit not given)): 40%
% inhibition Apol 40' (DRC-2, 40', concentration 20 (unit not given)): 48%
% inhibition ApPOL 90' (DRC-2, 90', concentration 20 (unit not given)): 48%
% inhibition apPOL 180' (DRC-2, 180', concentration 20 (unit not given)): 40%
% inhibition Apo pol 5' (DRC-2, 5', concentration 2.5): -2.67%
% inhibition Apo pol 5' (DRC-2, 5', concentration 5): 2.83%
% inhibition Apo pol 5' (DRC-2, 5', concentration 10): 12%
% inhibition Apo pol 5' (DRC-2, 5', concentration 20): 40%
% inhibition Apo pol 5' (DRC-2, 5', concentration 40): 61%
% inhibition Apo pol 5' (DRC-2, 5', concentration 80): 65%
% inhibition Apol 40' (DRC-2, 40', concentration 2.5): 1.81%
% inhibition Apol 40' (DRC-2, 40', concentration 5): 5%
% inhibition Apol 40' (DRC-2, 40', concentration 10): 16%
% inhibition Apol 40' (DRC-2, 40', concentration 20): 48%
% inhibition Apol 40' (DRC-2, 40', concentration 40): 72%
% inhibition Apol 40' (DRC-2, 40', concentration 80): 79%
% inhibition ApPOL 90' (DRC-2, 90', concentration 2.5): 1.18%
% inhibition ApPOL 90' (DRC-2, 90', concentration 5): 4%
% inhibition ApPOL 90' (DRC-2, 90', concentration 10): 15%
% inhibition ApPOL 90' (DRC-2, 90', concentration 20): 48%
% inhibition ApPOL 90' (DRC-2, 90', concentration 40): 73%
% inhibition ApPOL 90' (DRC-2, 90', concentration 80): 83%
% inhibition apPOL 180' (DRC-2, 180', concentration 2.5): -0.672%
% inhibition apPOL 180' (DRC-2, 180', concentration 5): -0.274%
% inhibition apPOL 180' (DRC-2, 180', concentration 10): 9%
% inhibition apPOL 180' (DRC-2, 180', concentration 20): 40%
% inhibition apPOL 180' (DRC-2, 180', concentration 40): 71%
% inhibition apPOL 180' (DRC-2, 180', concentration 80): 86%
DNA Pol (primary screen value of the library well): 95
